The record followed here is patent US20230100235A1, “ANTICANCER AGENT COMPOSITION” (CARNA BIOSCIENCES, INC., priority 2020, published 2023).

Where a name gives a salt, the structure may show the parent alone. Read-outs that look alike come from different tables or passages of the source.

Format in all cases: cell-based, Human
One experiment has as its system OCI-Ly10 cells. Kind of experiment: Cell proliferation suppression test of single agents, OCI-Ly10 (Alamar Blue, 96 h). The note with it: read-out: Inhibitory Activity on cell proliferation IC50 OCI-Ly10. The method, then:
Human lymphoma cell line OCI-Ly10 cells (obtained from University Health Network) were cultured in a 5% CO2 incubator using IMDM medium (Iscove's Modified Dulbecco's Medium, Thermo Fisher Scientific Inc.) containing 20% fetal bovine serum (GE Healthcare) and 1% penicillin streptomycin (NACALAI TESQUE, INC.).
(§1) The OCI-Ly10 or U2932 cells (20000 cells/well) were seeded into 96-well plates (cell plates), to which the test compound diluted with the medium was added at final concentrations of 0.009 nM to 30000 nM (a final DMSO concentration of 0.3%), and after 96 hours of culture, an Alamar Blue reagent (Thermo Fisher Scientific Inc.) was added. After 3 hours, the fluorescence of excitation wavelength 560 nm/fluorescence wavelength 590 nm was measured and IC50 values of inhibitory activity were determined by setting a compound-free and cell-free well as 100% and a compound-free and cell-containing well as 0%.
(In general: Alamar Blue is a resazurin reagent that responds to reducing activity.)

The subject of another experiment is U2932 cells. Kind of experiment: Cell proliferation suppression test of single agents, U2932 (Alamar Blue, 96 h). The conditions noted are these: read-out: Inhibitory Activity on cell proliferation IC50 U2932. The method, then: Human lymphoma cell line U2932 cells (obtained from DSMZ) were cultured in a 5% CO2 incubator using RPMI medium (Roswell Park Memorial Institute medium, Thermo Fisher Scientific Inc.) containing 10% fetal bovine serum (GE Healthcare) and 1% penicillin streptomycin (NACALAI TESQUE, INC.).
as §1

For experiment [1], the system named is BTK-C481S-mutant OCI-Ly10 cells. The experiment can be described thus: Cell proliferation suppression test of single agents, BTK-C481S-mutant OCI-Ly10. The conditions noted are these: single agent, read-out: Inhibitory activity on cell proliferation OCI-Ly10 BTK-C481S IC50. The method, then:
as §1
BTK-C481S-mutant OCI-Ly10 cells were produced by point mutation knock-in using the CRISPR-Cas9 system. Cas9 protein (Thermo Fisher Scientific Inc.), guide RNA prepared with GeneArt™ Precision gRNA Synthesis Kit (Thermo Fisher Scientific Inc.), and a single-stranded synthetic oligonucleotide to replace 481st cysteine residue of BTK with a serine residue were introduced into OCI-Ly10 cells by an electroporation method. The resulting modified OCI-Ly10 cells were cultured in the presence of ibrutinib, and the grown cells were used as BTK-C481S-mutant OCI-Ly10 cells. Transduction of the mutation was confirmed by genomic DNA and mRNA sequence analysis.
In the same manner as in Test Example 1, IC50 values for each inhibitor single agent were determined.

Setting [2] is: Homo sapiens, OCI-Ly10, single agent.
Setting [3] is: Homo sapiens, U2932, single agent.

In the case of `O=C(c1cc(-c2cc3c(cc2C(=O)N2Cc4ccccc4C[C@H]2CN2CCOCC2)OCO3)n2c1CCCC2)N(c1ccccc1)c1ccc(O)cc1` [Compound S-55746], the values for the IC50 (in the experiment on OCI-Ly10 cells (single agent); in the experiment with U2932 cells (single agent); in experiment [1]) were 69 nM, 1350 nM and 120 nM, respectively.
As for `CC1(C)CCC(c2ccc(Cl)cc2)=C(CN2CCN(c3ccc(C(=O)NS(=O)(=O)c4ccc(N[C@H](CCN5CCOCC5)CSc5ccccc5)c(S(=O)(=O)C(F)(F)F)c4)cc3)CC2)C1` [navitoclax], the IC50 was found to be 68 nM in the experiment with OCI-Ly10 cells (setting [2]); 390 nM with U2932 cells (setting [3]); 96 nM in experiment [1] (Homo sapiens, OCI-Ly10).
The like results for `COC1=CC(c2cc3ccccc3[nH]2)=N/C1=C\c1[nH]c(C)cc1C` [obatoclax mesylate] were, in that order, 150 nM, 190 nM and 150 nM.
The like results for `CC1(C)CCC(CN2CCN(c3ccc(C(=O)NS(=O)(=O)c4ccc(NCC5CCOCC5)c([N+](=O)[O-])c4)c(Oc4cnc5[nH]ccc5c4)c3)CC2)=C(c2ccc(Cl)cc2)C1` [venetoclax] were, in that order, 10 nM, 720 nM and 20 nM.
